According to PubChem BioAssay (NCI):
Where “and” joins values, the source holds several entries; their conditions need not be identical. Equal entries are not always repeated.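 Test compounds were applied to cells in 96-well plates for 48 hours at 5 doses. GI50 is the concentration that inhibits growth by half. TGI denotes the concentration required for complete inhibition of growth.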

Legend:
Assay in all cases: NCI anticancer screen, dose series, 48 h
[1] = tested on: ACHN renal
[2] = tested on: BT-549 breast
[3] = tested on: HCT-15 colon
[4] = tested on: HL-60(TB) leukemia
[5] = tested on: MDA-MB-435
[6] = tested on: MOLT-4 leukemia
[7] = tested on: NCI-H460 lung
[8] = tested on: RXF 393 renal
[9] = tested on: SK-MEL-2 melanoma
[10] = tested on: UACC-62 melanoma

Structure (SMILES) | GI50 [1] | TGI [1] | GI50 [2] [µM] | TGI [2] [µM] | GI50 [3] | TGI [3] | GI50 [4] | TGI [4] | GI50 [5] [µM] | TGI [5] [µM] | GI50 [6] [µM] | TGI [6] | GI50 [7] | TGI [7] | GI50 [8] | TGI [8] | GI50 [9] [µM] | TGI [9] | GI50 [10] | TGI [10]
COC(=O)c1cc2c([nH]c3ccccc32)c(-c2nc3cc(N(S(=O)(=O)c4ccc(C)cc4)S(=O)(=O)c4ccc(C)cc4)c(OC)cc3cc2CO)n1 | > 100 µM | > 100 µM | > 100 | > 100 | > 100 µM | > 100 µM | 31.7 µM | 75.7 µM | > 100 | > 100 | 10.6 | 25.7 µM | > 100 µM | > 100 µM | > 100 µM | > 100 µM | > 100 | > 100 µM | > 100 µM | > 100 µM
C/C=C\C(C)=C/C(C)C(=O)CC(O)CC1CC(=O)NC(=O)C1 (configuration not stated) |  | > 100 µM |  | > 100 |  | > 100 µM |  | > 100 µM |  | > 100 |  | > 28.2 µM |  | > 100 µM |  | > 100 µM |  | > 100 µM |  | > 64.1 µM
Cc1nc2cc(NC(=O)CN3CCN(CCN4C(=O)c5cccc6cccc(c56)C4=O)CC3)ccc2s1 | 3.5 µM | 25 µM | 4.86 | 24.1 | 3.58 µM | 16.5 µM | 6.36 µM | 26.3 µM | 4.6 | 19.4 | 2.52 | 22.2 µM | 3.44 µM | 13.1 µM | 5.46 µM | 25.4 µM | 6.62 | 24.1 µM | 4.98 µM | 17.6 µM
COc1ccc(/C(C)=C(\c2ccc(Cl)cc2)c2ccc(OCCN3CCCCC3)cc2)cc1F | 4.93 µM | 14.4 µM | 3.11 | 7.47 | 0.943 µM | 3.37 µM | 2.85 µM | 6.82 µM | 2.71 | 5.37 | 3.4 | 11.3 µM | 2.59 µM | 5.38 µM | 2.84 µM | 5.75 µM | 3.53 | 7.65 µM | 3.68 µM | 8.9 µM
COc1ccc(/C=C2\CN(Cc3cn(CCCNc4ccnc5cc(Cl)ccc45)nn3)C/C(=C\c3ccc(OC)cc3)C2=O)cc1 | 12.9 µM | 25.6 µM | 3.78 | 12.9 | 1.83 µM | 5.14 µM | 3.27 µM | 18.2 µM | 1.6 | 3.02 | 2.55 | 9.4 µM | 1.86 µM | 3.79 µM | 5.48 µM | 18.9 µM | 9.85 | 39.6 µM | 16.3 µM | 32.1 µM
O=C1C2=C(Nc3cc([N+](=O)[O-])ccc3N2)OC1c1c[nH]c2ccc(COc3ccccc3)cc12 (configuration not stated) |  | > 100 µM |  | > 100 |  | > 100 µM |  | 17.7 µM |  | > 100 |  | 40.4 µM |  | > 100 µM |  | > 100 µM |  | > 100 µM |  | > 100 µM
COc1cc(C2C3=C(COC3=O)N(CCO)c3cc4c(cc32)CCC4)cc(OC)c1OC (configuration not stated) | 0.229 µM | > 32.5 µM | 0.136 | > 18.4 | 0.199 µM | > 32.5 µM | 0.0842 µM |  | 0.0279 | 0.187 | 0.147 | > 32.5 µM | 0.106 µM | 1.1 µM | 0.0446 µM | 0.141 µM | 0.146 | > 9.09 µM | 0.0749 µM | > 32.5 µM
Nc1nc(N)c2nn(-c3ccc(C(=O)O)cc3)nc2n1 |  | > 100 µM |  | > 100 |  | > 100 µM |  | > 100 µM |  | > 100 |  | > 100 µM |  | > 100 µM |  | > 100 µM |  | > 100 µM |  | > 100 µM
COc1ccc(C(=O)CC(Cl)=C(Cl)Cl)cc1 | 20.1 µM | 41.4 µM | 21.6 | 57.3 | 28 µM | 97.4 µM | 34.2 µM | 95 µM | 24.8 | 62.7 | 19.7 | 64.2 µM | > 100 µM | > 100 µM | 32 µM | 97.1 µM | 44.4 | > 100 µM | 21.7 µM | 49.9 µM
O=C(NC(c1ccccc1)C(O)C(=O)OCc1ccc2c(c1)C(=O)c1ccccc1C2=O)c1ccccc1 (configuration not stated) |  | 43.7 µM |  | > 100 |  | > 100 µM |  | > 100 µM |  | > 100 |  | > 100 µM |  | 42.8 µM |  | 8.57 µM |  | 86.9 µM |  | 53 µM
COc1cc2c(c(OC)c1OC)-c1c(c3ccc([N+](=O)[O-])cc3c(=O)n1CCCN=[N+]=[N-])C2=O | 14.1 µM | 39.6 µM | 47.5 | > 100 | 44.6 µM | > 100 µM | > 100 µM | > 100 µM | > 100 | > 100 | > 100 | > 100 µM | 12.3 µM | > 100 µM | 4.81 µM | 47.3 µM | 2.49 | 22.9 µM | 32.5 µM | > 100 µM
COc1ccc(C2CC(c3ccc(OC)c(OC)c3)=NN2C(=O)c2cc(OC)c(OC)c(OC)c2)cc1 (configuration not stated) | 2.41 µM | > 100 µM | 3.96 | > 46.7 | 1.76 µM | > 100 µM | 2.4 µM | > 32 µM | 0.409 | 2.02 | 7.36 | > 100 µM | 3.54 µM | > 100 µM | 0.344 µM | 3.05 µM | 3.87 | > 100 µM | 1.39 µM | > 100 µM
Cc1nn(-c2ccccc2)c2ncc3c(c12)C(=O)N(Cc1ccccc1)C3=O | 3.57 µM | 13.7 µM | 4.23 | 38.6 | > 100 µM | > 100 µM | > 100 µM | > 100 µM | > 100 | > 100 | 6.77 | 40.3 µM | 2.55 µM | > 100 µM | 6.67 µM | 38.3 µM | 13.7 | 31.5 µM | 21.5 µM | > 100 µM
COc1cc2c(cc1Nc1nc(Nc3ccsc3C(N)=O)c3cc[nH]c3n1)N(C(=O)CN(C)C)CCC2 | 2.67 µM | 6.06 µM | 2.38 | 6.43 | 1.87 µM | > 25 µM | 0.00552 µM | 1.09 µM | 0.0499 | 0.489 | 1.23 | 9.6 µM | 0.498 µM | 3.21 µM | 0.612 µM | 3.34 µM | 0.726 | 4.58 µM | 0.889 µM | 4.2 µM
COc1cccc2c1C(=N)c1c(O)c3c(c(O)c1C2=O)C[C@@](O)(C(C)=O)C[C@@H]3OC1CC(N)C(O)C(C)O1 (some centres not stated) | 0.472 µM |  | 1.66 | 16.2 |  | 28 µM and 32.8 µM |  | 0.287 µM and 0.192 µM | 1.1 | 4.47 |  |  |  | 2.01 µM and 2.11 µM and 0.239 µM |  | 2.95 µM and 3.8 µM and 0.872 µM |  | 4.6 µM and 6.27 µM and 1.23 µM |  | 1.61 µM and 1.9 µM and 2.61 µM
C[CH2][Ge]1([CH2]C)[CH2]CC2(CCN(CCCN(C)C)C2)C[CH2]1 | 1.84 µM and 1.7 µM | 3.66 µM and 3.95 µM | 1.69 | 3.23 | 1.07 µM and 1.51 µM | 2.74 µM and 2.65 µM | 0.312 µM and 1.21 µM | 1.61 µM and 1.79 µM | 0.289 | 0.843 |  | 2.91 µM and 25.7 µM | 1.44 µM and 2.53 µM | 3.05 µM and 4.6 µM | 1.71 µM and 1.21 µM | 4.29 µM and 3.4 µM | 0.616 | 1.32 µM | 0.875 µM and 1.57 µM | 1.78 µM and 3.19 µM
C#Cc1cccc(NC(=O)Nc2cccc(NC(=O)CCl)c2)c1 | 41.5 µM | > 82.5 µM | 16.3 | > 82.5 | 11.8 µM | 26.7 µM | 18.6 µM | 73.9 µM | 24.2 | > 82.5 | 12.5 | 81.4 µM | 27.3 µM | > 82.5 µM | 13.4 µM | 63.6 µM | 32.7 | > 82.5 µM | 33.1 µM | > 82.5 µM
O=C1/C(=C/c2ccc([N+](=O)[O-])s2)Oc2ccc(Cl)cc21 | 0.234 µM | 0.595 µM | 0.248 | 0.682 | 0.192 µM | 0.55 µM | 0.423 µM | 2.15 µM | 0.457 | 1.55 | 0.371 | 2.47 µM | 0.675 µM | 2.18 µM | 0.375 µM | 1.11 µM | 0.26 | 0.624 µM | 0.271 µM | 0.771 µM
CCCCCCCCCCCCOC1C(C(COC2OC(C(O)CO)C3OC(C)(C)OC23)OC(=O)Nc2ccc([N+](=O)[O-])cc2)OC2OC(C)(C)OC21 (configuration not stated) | 3.4 µM | 10.6 µM | 1.9 | 5.57 | 3.3 µM | 11.1 µM | 3.36 µM | 8.92 µM | 1.84 | 3.68 |  |  | 3.74 µM | 13.5 µM | 2.71 µM | 6.57 µM | 2.09 | 5.09 µM | 2.06 µM | 4.61 µM
